The values below come from US9926281B2 (priority 2014, dated 2018).

Structures are written as SMILES.

The target in one experiment is human ADAMTS-5 (Homo sapiens (Human), UniProt Q9UNA0). The settings on record: read-out: hADAMTS-5 potency IC50.
Another experiment has as its target human TACE (Homo sapiens (Human), UniProt P78536). The settings on record: read-out: TACE potency IC50.

human TACE, sequence (P78536 whole entry, looked up, change not shown): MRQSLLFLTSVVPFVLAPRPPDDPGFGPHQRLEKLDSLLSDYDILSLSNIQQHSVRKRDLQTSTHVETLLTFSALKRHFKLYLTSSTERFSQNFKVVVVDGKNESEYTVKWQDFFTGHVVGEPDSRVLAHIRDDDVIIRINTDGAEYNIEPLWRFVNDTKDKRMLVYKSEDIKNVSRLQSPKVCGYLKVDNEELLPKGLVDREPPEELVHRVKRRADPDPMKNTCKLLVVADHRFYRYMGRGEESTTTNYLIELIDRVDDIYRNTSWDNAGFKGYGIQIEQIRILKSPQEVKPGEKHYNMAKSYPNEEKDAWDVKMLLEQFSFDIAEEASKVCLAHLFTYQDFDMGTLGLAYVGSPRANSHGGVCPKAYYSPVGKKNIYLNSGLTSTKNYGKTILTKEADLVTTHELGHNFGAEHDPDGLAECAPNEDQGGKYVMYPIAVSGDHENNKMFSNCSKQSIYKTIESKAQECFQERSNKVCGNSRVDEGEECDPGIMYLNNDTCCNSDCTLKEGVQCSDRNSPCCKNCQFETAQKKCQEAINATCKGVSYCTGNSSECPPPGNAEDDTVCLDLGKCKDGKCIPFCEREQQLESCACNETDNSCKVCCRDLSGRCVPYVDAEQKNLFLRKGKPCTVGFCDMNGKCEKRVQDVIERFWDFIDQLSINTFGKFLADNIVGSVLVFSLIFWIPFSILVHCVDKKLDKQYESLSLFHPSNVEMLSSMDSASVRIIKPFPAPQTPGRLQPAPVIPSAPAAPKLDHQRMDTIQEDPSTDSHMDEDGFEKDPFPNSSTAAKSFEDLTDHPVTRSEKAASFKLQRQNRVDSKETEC
human ADAMTS-5, sequence (Q9UNA0 262-930): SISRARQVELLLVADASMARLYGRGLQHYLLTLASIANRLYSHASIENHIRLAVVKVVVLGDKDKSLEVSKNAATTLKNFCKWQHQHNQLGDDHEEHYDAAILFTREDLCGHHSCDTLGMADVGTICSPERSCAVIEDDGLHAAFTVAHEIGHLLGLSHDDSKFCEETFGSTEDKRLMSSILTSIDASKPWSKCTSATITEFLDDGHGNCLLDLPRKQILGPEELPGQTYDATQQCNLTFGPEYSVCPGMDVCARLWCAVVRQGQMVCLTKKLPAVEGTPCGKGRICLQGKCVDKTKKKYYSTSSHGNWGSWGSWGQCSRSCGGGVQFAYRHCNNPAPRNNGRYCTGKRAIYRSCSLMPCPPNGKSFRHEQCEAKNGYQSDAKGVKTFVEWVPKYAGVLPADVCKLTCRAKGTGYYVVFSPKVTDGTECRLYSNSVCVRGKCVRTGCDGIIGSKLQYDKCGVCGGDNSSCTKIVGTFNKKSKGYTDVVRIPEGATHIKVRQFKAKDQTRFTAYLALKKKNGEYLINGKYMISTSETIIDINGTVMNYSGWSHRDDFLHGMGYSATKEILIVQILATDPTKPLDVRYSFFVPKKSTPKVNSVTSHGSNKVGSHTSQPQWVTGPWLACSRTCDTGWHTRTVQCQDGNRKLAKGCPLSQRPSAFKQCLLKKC
Method for human ADAMTS-5: Finally, the fluorescence is read on the Envision (Perkin Elmer) after an incubation of 90 min at 37° C.

`CC(CC1(C2CN(C(=O)OC(C)(C)C)C2)NC(=O)NC1=O)C(=O)N1CCN(c2ccc(F)c(F)c2)[C@@H](C)C1` (stereo partly drawn) [compound 239, tert-butyl 3-[4-[3-[(3S)-4-(3,4-difluorophenyl)-3-methyl-piperazin-1-yl]-2-methyl-3-oxo-propyl]-2,5-dioxo-imidazolidin-4-yl]azetidine-1-carboxylate]: the values for the half-maximal inhibitory concentration (IC50) at human ADAMTS-5 and on human TACE were 0.046 µM and greater than 4 µM, respectively.
`CC(CC1(C2CNC2)NC(=O)NC1=O)C(=O)N1CCN(c2ccc(F)c(F)c2)CC1` (stereo not shown) [compound 240, 5-(azetidin-3-yl)-5-[3-[4-(3,4-difluorophenyl)piperazin-1-yl]-2-methyl-3-oxo-propyl]imidazolidine-2,4-dione]: the half-maximal inhibitory concentration (IC50) at human ADAMTS-5 is 0.194 µM; at human TACE, greater than 20 µM.
Take `CC(CC1(C)NC(=O)NC1=O)C(=O)N1C[C@@H](C)N(c2cc(Cl)cc(Cl)c2)[C@@H](C)C1` (stereo partly drawn) [compound 243, 5-[3-[(3R,5S)-4-(3,5-dichlorophenyl)-3,5-dimethyl-piperazin-1-yl]-2-methyl-3-oxo-propyl]-5-methyl-imidazolidine-2,4-dione]: the 50% inhibitory concentration (IC50) at human ADAMTS-5 was greater than 3.89 µM; on human TACE, greater than 19.5 µM.
In the same order, the values of `CC(CC1(CN2CCOCC2)NC(=O)NC1=O)C(=O)N1CCN(c2cc(Cl)cc(Cl)c2)[C@@H](C)C1` (stereo partly drawn) [compound 246, 5-[3-[(3S)-4-(3,5-dichlorophenyl)-3-methyl-piperazin-1-yl]-2-methyl-3-oxo-propyl]-5-(morpholinomethyl)imidazolidine-2,4-dione] are 0.114 µM and greater than 19.5 µM.
Taken in the same sequence, the figures for `CC(=O)N1CC(C2(CC(C)C(=O)N3CCN(c4ccc(F)c(F)c4)CC3)NC(=O)NC2=O)C1` (stereo not shown) [compound 248, 5-(1-acetylazetidin-3-yl)-5-[3-[4-(3,4-difluorophenyl)piperazin-1-yl]-2-methyl-3-oxo-propyl]imidazolidine-2,4-dione] were 0.049 µM and greater than 3.78 µM.
Taken in the same sequence, the figures for `CC(CC1(CN2CCC(F)(F)C2)NC(=O)NC1=O)C(=O)N1CCN(c2cc(Cl)cc(Cl)c2)CC1` (stereo not shown) [compound 252, 5-[3-[4-(3,5-dichlorophenyl)piperazin-1-yl]-2-methyl-3-oxo-propyl]-5-[(3,3-difluoropyrrolidin-1-yl)methyl]imidazolidine-2,4-dione] were 0.067 µM and 2.69 µM.
In the case of `CC(CC1(CN2CCC(F)(F)C2)NC(=O)NC1=O)C(=O)N1CCN(c2ccc(F)c(Cl)c2)[C@@H](C)C1` (stereo partly drawn) [compound 253, 5-[3-[(3S)-4-(3-chloro-4-fluoro-phenyl)-3-methyl-piperazin-1-yl]-2-methyl-3-oxo-propyl]-5-[(3,3-difuoropyrrolidin-1-yl)methyl]imidazolidine-2,4-dione], the IC50 is 0.035 µM at human ADAMTS-5 and greater than 20 µM on human TACE.
Taken in the same sequence, the figures for `CC1(CC(CC#N)C(=O)N2CCN(c3cc(Cl)cc(Cl)c3)CC2)NC(=O)NC1=O` (stereo not shown) [compound 254, 4-[4-(3,5-dichlorophenyl)piperazin-1-yl]-3-[(4-methyl-2,5-dioxo-imidazolidin-4-yl)methyl]-4-oxo-butanenitrile] were 0.071 µM and 1 µM.
Taken in the same sequence, the figures for `C[C@H]1CN(C(=O)CCC2(C3CC3)NC(=O)NC2=O)CCN1c1cc(Cl)ncn1` (stereo partly drawn) [compound 256, 5-[3-[(3S)-4-(6-chloropyrimidin-4-yl)-3-methyl-piperazin-1-yl]-3-oxo-propyl]-5-cyclopropyl-imidazolidine-2,4-dione] were 1.41 µM and greater than 20 µM.
In the same order, the values of `C[C@H]1CN(C(=O)CCC2(C3CC3)NC(=O)NC2=O)CCN1c1cc(Cl)cc(Cl)n1` (stereo partly drawn) [compound 257, 5-cyclopropyl-5-[3-[(3S)-4-(4,6-dichloro-2-pyridyl)-3-methyl-piperazin-1-yl]-3-oxo-propyl]imidazolidine-2,4-dione] are 1.57 µM and greater than 4 µM.
For `C[C@H]1CN(C(=O)CCC2(C3CC3)NC(=O)NC2=O)CCN1c1cc(Cl)nc(Cl)c1` (stereo partly drawn) [compound 258, 5-cyclopropyl-5-[3-[(3S)-4-(2,6-dichloro-4-pyridyl)-3-methyl-piperazin-1-yl]-3-oxo-propyl]imidazolidine-2,4-dione], the figures for the 50% inhibitory concentration (IC50) at human ADAMTS-5 and at human TACE were 1.53 µM and greater than 20 µM, respectively.
Taken in the same sequence, the figures for `CC(CC1(c2ccccn2)NC(=O)NC1=O)C(=O)N1CCN(c2cccc(F)c2)[C@@H](C)C1` (stereo partly drawn) [compound 263, 5-[3-[(3S)-4-(3-fluorophenyl)-3-methyl-piperazin-1-yl]-2-methyl-3-oxo-propyl]-5-(2-pyridyl)imidazolidine-2,4-dione] were 0.019 µM and 2.62 µM.
In the case of `CC(CC1(c2ccccn2)NC(=O)NC1=O)C(=O)N1CCN(c2ccc(F)c(F)c2)[C@@H](C)C1` (stereo partly drawn) [compound 264, 5-[3-[(3S)-4-(3,4-difluorophenyl)-3-methyl-piperazin-1-yl]-2-methyl-3-oxo-propyl]-5-(2-pyridyl)imidazolidine-2,4-dione], the IC50 at human ADAMTS-5 is 0.019 µM; at human TACE it was greater than 4 µM.
In the same order, the values of `Cc1cc(N2CCN(C(=O)CCC3(C)NC(=O)NC3=O)CC2)c(F)cc1Cl` (stereo not shown) [compound 267, 5-[3-[4-(4-chloro-2-fluoro-5-methyl-phenyl)piperazin-1-yl]-3-oxo-propyl]-5-methyl-imidazolidine-2,4-dione] are 3.08 µM and greater than 4 µM.
In the same order, the values of `CC(CC1(c2ccccn2)NC(=O)NC1=O)C(=O)N1CCN(c2cccc(Cl)c2)[C@@H](C)C1` (stereo partly drawn) [compound 269, 5-[3-[(3S)-4-(3-chlorophenyl)-3-methyl-piperazin-1-yl]-2-methyl-3-oxo-propyl]-5-(2-pyridyl)imidazolidine-2,4-dione] are 0.019 µM and 0.84 µM.
Taken in the same sequence, the figures for `CC(CC1(C)NC(=O)NC1=O)C(=O)N1C[C@H](C)N(c2cc(Cl)cc(Cl)c2)[C@@H](C)C1` (stereo partly drawn) [compound 271, 5-[3-[(3S,5S)-4-(3,5-dichlorophenyl)-3,5-dimethyl-piperazin-1-yl]-2-methyl-3-oxo-propyl]-5-methyl-imidazolidine-2,4-dione] were 1.3 µM and greater than 20 µM.
On to `C[C@H]1CN(C(=O)CCC2(C3CC3)NC(=O)NC2=O)CCN1c1ccc2[nH]ccc2c1` (stereo partly drawn) [compound 274, 5-cyclopropyl-5-[3-[(3S)-4-(1H-indol-5-yl)-3-methyl-piperazin-1-yl]-3-oxo-propyl]imidazolidine-2,4-dione], for which the concentration for half-maximal inhibition (IC50) at human ADAMTS-5 is greater than 4 µM; on human TACE, greater than 20 µM.
Taken in the same sequence, the figures for `CC(CC1(C)NC(=O)NC1=O)C(=O)N1CCN(c2cccnc2)[C@@H](C)C1` (stereo partly drawn) [compound 275, 5-methyl-5-[2-methyl-3-[(3S)-3-methyl-4-(3-pyridyl)piperazin-1-yl]-3-oxo-propyl]imidazolidine-2,4-dione] were 0.266 µM and greater than 20 µM.
Taken in the same sequence, the figures for `O=C1NC(=O)C(CCC(=O)N2CCN(c3ccncc3)CC2)(C2CC2)N1` (stereo not shown) [compound 278, 5-cyclopropyl-5-[3-oxo-3-[4-(4-pyridyl)piperazin-1-yl]propyl]imidazolidine-2,4-dione] were greater than 20 µM and greater than 20 µM.
Taken in the same sequence, the figures for `COCC1(CC(C)C(=O)N2CCN(c3cc(F)c(Cl)c(F)c3)CC2)NC(=O)NC1=O` (stereo not shown) [compound 279, 5-[3-[4-(4-chloro-3,5-difluoro-phenyl)piperazin-1-yl]-2-methyl-3-oxo-propyl]-5-(methoxymethyl)imidazolidine-2,4-dione] were 0.019 µM and 2.99 µM.

As usually defined, the IC50 is the midpoint of a concentration-inhibition curve.
